PMC6934184, “Selective DNA-PKcs inhibition extends the therapeutic index of localized radiotherapy and chemotherapy” (The Journal of Clinical Investigation, 2019)

Molecular target: T1, PIK3CD/PIK3R1 (p110δ/p85α) (Homo sapiens, UniProt O00329)
T1 construct: purchased Thermo Fisher Scientific (Life Technologies) SelectScreen
Experiment: SelectScreen Adapta
Assay type: biochemical
Conditions: ATP Km app
In short: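 SelectScreen broad panel; activity (Z'LYTE, Adapta) plus binding formats. ATP: Km app for CSF1R Z'LYTE; 10 for CAMK1 Adapta. Readout = % per kinase.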

T1 sequence (O00329 whole entry): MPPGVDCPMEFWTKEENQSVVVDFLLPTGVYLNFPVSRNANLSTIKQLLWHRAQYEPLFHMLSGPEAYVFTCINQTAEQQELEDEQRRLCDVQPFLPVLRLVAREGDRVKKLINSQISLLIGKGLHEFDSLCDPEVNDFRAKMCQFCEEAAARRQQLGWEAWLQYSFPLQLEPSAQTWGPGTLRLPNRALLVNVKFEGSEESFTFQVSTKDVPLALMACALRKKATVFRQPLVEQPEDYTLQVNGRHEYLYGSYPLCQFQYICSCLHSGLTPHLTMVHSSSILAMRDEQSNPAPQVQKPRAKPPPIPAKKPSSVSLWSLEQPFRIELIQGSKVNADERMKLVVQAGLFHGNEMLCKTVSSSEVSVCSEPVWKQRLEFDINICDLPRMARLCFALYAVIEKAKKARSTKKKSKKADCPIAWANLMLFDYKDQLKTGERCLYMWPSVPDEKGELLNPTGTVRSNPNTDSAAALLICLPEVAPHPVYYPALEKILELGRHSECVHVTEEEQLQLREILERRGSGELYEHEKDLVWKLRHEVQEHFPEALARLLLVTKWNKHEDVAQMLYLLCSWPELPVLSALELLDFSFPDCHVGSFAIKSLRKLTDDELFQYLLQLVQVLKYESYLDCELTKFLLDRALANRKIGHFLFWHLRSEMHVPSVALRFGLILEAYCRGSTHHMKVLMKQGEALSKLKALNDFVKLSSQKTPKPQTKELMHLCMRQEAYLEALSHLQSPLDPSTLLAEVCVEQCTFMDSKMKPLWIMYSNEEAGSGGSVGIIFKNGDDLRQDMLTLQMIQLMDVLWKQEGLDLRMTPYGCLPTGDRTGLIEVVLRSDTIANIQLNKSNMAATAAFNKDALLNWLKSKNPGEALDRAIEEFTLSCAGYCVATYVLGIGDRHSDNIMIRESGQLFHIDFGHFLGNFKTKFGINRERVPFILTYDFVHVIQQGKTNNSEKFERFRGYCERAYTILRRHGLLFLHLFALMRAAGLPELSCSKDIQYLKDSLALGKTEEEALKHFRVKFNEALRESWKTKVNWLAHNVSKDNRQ
T1 sequence (P27986 whole entry partner): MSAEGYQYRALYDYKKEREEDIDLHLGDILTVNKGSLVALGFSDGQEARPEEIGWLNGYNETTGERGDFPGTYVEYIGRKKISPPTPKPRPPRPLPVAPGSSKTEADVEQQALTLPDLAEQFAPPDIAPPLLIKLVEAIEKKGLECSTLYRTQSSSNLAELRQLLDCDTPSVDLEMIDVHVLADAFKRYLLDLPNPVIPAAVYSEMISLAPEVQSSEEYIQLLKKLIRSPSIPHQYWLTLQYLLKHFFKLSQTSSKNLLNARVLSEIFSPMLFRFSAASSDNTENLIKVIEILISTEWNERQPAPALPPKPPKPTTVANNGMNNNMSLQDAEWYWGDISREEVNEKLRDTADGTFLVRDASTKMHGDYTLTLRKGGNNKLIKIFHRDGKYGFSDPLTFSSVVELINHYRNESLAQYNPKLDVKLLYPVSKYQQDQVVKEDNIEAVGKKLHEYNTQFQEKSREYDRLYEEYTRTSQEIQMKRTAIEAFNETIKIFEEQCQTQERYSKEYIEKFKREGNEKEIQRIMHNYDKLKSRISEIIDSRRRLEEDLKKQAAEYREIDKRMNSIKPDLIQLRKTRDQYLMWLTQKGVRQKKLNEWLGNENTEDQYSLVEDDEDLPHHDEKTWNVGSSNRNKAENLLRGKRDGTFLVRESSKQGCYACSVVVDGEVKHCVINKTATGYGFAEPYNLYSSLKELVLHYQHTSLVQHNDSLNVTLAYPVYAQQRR

Q: Which results are given for `CN(C(=O)CN1CCOCC1)c1ccc2sc3c(-c4cccc5c(=O)cc(N6CC7CCC(C6)O7)oc45)cccc3c2c1` [NU5455]?
A: % inhibition (1 µM): 57%; inhibition at 1 µM: 57.5%
